Where “and” joins values, the source holds several entries; their conditions need not be identical. Identical values can stand only once.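 Step 1: Grow cells in 96-well plates. Step 2: Expose to compound for 48 hours at 5 concentrations. Step 3: Interpolate endpoints linearly; if unreached, use highest concentration. GI50: concentration for 50% inhibition of growth. Definition used: TGI = concentration required for complete inhibition of growth.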
Tests used:
Assay in all cases: NCI anticancer screen, dose series, 48 h
[1] = system: SK-OV-3 ovarian
[2] = system: U251 CNS
[3] = system: SF-268 CNS
[4] = system: HCT-15 colon
[5] = system: HCT-116 colon
[6] = system: MOLT-4 leukemia
[7] = system: CAKI-1 renal
[8] = system: A498 renal
[9] = system: MDA-MB-231 breast
[10] = system: UACC-257 melanoma

Structure (SMILES) | GI50 [1] | TGI [1] | GI50 [2] | TGI [2] | GI50 [3] | TGI [3] | GI50 [4] | TGI [4] | GI50 [5] | TGI [5] | GI50 [6] | TGI [6] | GI50 [7] | TGI [7] | GI50 [8] | TGI [8] | GI50 [9] | TGI [9] | GI50 [10] | TGI [10]
CN(C)CCOC(=O)Nc1nc2ccc(Sc3ccccc3)cc2[nH]1 | 3.87 µM | 23.7 µM | 3.04 µM | 12.1 µM | 6.41 µM | 25.4 µM | 1.96 µM | 16.2 µM | 3.16 µM | 12.6 µM | 5.32 µM | 20.1 µM | 3.16 µM | 17.2 µM | 2.62 µM | 10.6 µM | 3.25 µM | 12.3 µM | 13.4 µM | 29.4 µM
CN(C)c1ccc(N=C2C=CC(=O)c3ccccc32)cc1 | 17 µM | > 100 µM | 2.47 µM | 7.9 µM | 2.92 µM | 13.1 µM | 2.36 µM | 17.7 µM | 2.88 µM | 13.3 µM | 2.45 µM | 6.21 µM | 3.58 µM | 16.3 µM | 12 µM | 25.2 µM | 0.899 µM | 12.7 µM | 2.21 µM | 5.45 µM
Cc1ccc(S(=O)(=O)N2CCc3ccc(O)c4c3C2Cc2ccc3c(c2-4)OCO3)cc1 (configuration not stated) | 0.731 µM | 8.09 µM | 0.464 µM | 5.92 µM | 1.01 µM | 23.3 µM | 0.583 µM | > 35.1 µM | 0.451 µM | 10.6 µM | 2.42 µM | 20.3 µM | 0.737 µM | 22.6 µM | 0.898 µM | 7.09 µM | 1.47 µM | 9.48 µM | 0.656 µM | 18.1 µM
O=C(O)Cc1cccc2c(=O)c3cccc([N+](=O)[O-])c3oc12 |  | > 100 µM |  | > 100 µM |  | > 100 µM |  | > 100 µM |  | > 100 µM |  | > 100 µM |  | > 100 µM |  | > 100 µM |  | > 100 µM |  | > 100 µM
Cc1ccc(OCC2OC(n3cnc4c(Br)nc(Br)nc43)CC2Oc2ccc(C)cc2)cc1 (configuration not stated) | 11.2 µM | 21.4 µM and > 54.2 µM | 1.61 µM | 3.99 µM and 4.82 µM |  | 25.4 µM | 1.45 µM | 3.24 µM and 4.73 µM | 5.29 µM | 14.5 µM and 3.6 µM |  | 4.34 µM and 5.42 µM | 1.2 µM | 2.26 µM and 4.03 µM | 22.9 µM | 20.6 µM and 41 µM | 1.74 µM | 5.27 µM and 4.34 µM | 10.3 µM | 20.4 µM and 21.3 µM
Nc1ccc(Sc2c3ccccc3nc3ccccc23)cc1 |  | 59.8 µM |  | 28 µM |  | 40.5 µM |  | 36.7 µM |  | 26.1 µM |  | 27.1 µM |  | 39 µM |  | > 100 µM |  | 28.1 µM |  | 33.1 µM
Cc1cc(=O)oc2cc(OC/C=C3\CCC(=O)O3)ccc12 | 28.2 µM | > 76 µM | 14.5 µM | 30.9 µM | 15.3 µM | 50.2 µM | 10.6 µM | 23.9 µM | 8.38 µM | 24.6 µM |  | 0.011 µM | 7.59 µM | 26.8 µM | 28.7 µM | 79.4 µM | 16.9 µM | 34.7 µM | 21.5 µM | > 62.1 µM
COC1=CC(=O)c2nc(Cl)ccc2C1=O | 11 µM | 23.3 µM | 1.66 µM | 3.03 µM | 1.65 µM | 3.19 µM | 2.03 µM | 4.55 µM | 1.75 µM | 3.24 µM | 0.807 µM | 7.77 µM | 1.91 µM | 3.74 µM | 12 µM | 24.3 µM | 1.84 µM | 6.44 µM | 1.68 µM | 3.12 µM
C/C(=N/Nc1nc(C)cc(=O)[nH]1)C(=O)O |  | > 100 µM |  | > 100 µM |  | > 100 µM |  | > 100 µM |  | > 100 µM |  | > 100 µM |  | > 100 µM |  | > 100 µM |  | > 100 µM |  | > 100 µM
O=C(O)CCC(C(=O)O)N1C(=O)C2C3CCC(C3)C2C1=O (configuration not stated) |  | > 100 µM |  | > 100 µM |  | > 100 µM |  | > 100 µM |  | > 100 µM |  | > 100 µM |  | > 100 µM |  | > 100 µM |  | > 100 µM |  | > 100 µM
